In brackets after ≈: the same amount, converted by molar mass.
Experiments:
[1] = physchem; details: pH 7.2, aqueous buffer
[2] = Solubility in water around the neutral pH range; details: for solubility in water: pH 7.2 (around the neutral range); for solubility in water relative to BSPM: pH 7.2, multiple of the solubility of BSPM
[3] = system: H202-POD (peroxidase) system; assay: Oxidation coloring in the H2O2-peroxidase system; details: statement in words
From the text: The triphenyl methane derivatives according to the present invention in which two groups ―O(CH2)nSO3M (M and n are the same meanings as given above), are present, are unexpectedly different from the triphenyl methane derivative in which two sulfonic acid groups are directly bonded to the benzene nucleus, since they are excellent in oxidation coloring in the H202-POD system, and can be satisfactorily used for the purpose aimed at by the present invention.

[4] = known triphenyl methane type leuco coloring matters, statement in words; cited from earlier work

solubility in water [2]	solubility in water relative to BSPM [2]	SMILES	solubility in water in the neutral pH-range [4]	other results
≥ 15000 µM	not less than 30 times	CCN(CC)c1ccc(C(c2ccc(N(CC)CC)cc2)c2ccc(OCCCS(=O)(=O)O)c(OCCCS(=O)(=O)O)c2)cc1 [BSdiproPM, bis(4-N,N-diethylaminophenyl)-3,4-disodium sulfopropoxyphenyl methane]	–	–
5000 µM	10 times	CCN(CC)c1ccc(C(c2ccc(OCCCS(=O)(=O)O)cc2)c2ccc(N(CC)CC)cc2)cc1 [BSproPM, bis(4-N,N-diethylaminophenyl)-4-sodium sulfopropoxyphenyl methane]	–	–

Further lines, the molecule ahead of its results:

SMILES	solubility in water [2]	solubility in water relative to BSPM [2]	solubility in water in the neutral pH-range [4]	other results
CCN(CC)c1ccc(C(c2ccc(N(CC)CC)cc2)c2ccccc2S(=O)(=O)O)cc1 [BSPM, bis(4-diethylaminophenyl)-2-sulfophenyl methane]	–	–	–	solubility [1]: 500 µM (≈ 233 µg/mL)
CCN(CC)c1ccc(C(c2ccc(N(CC)CC)cc2)c2ccc(S(=O)(=O)O)cc2S(=O)(=O)O)cc1 [bis(4-diethylaminopheny)-2,4-disulfophenyl methane]	–	–	–	oxidation coloring in the H202-POD system [3]: no coloring takes place
CN(C)c1ccc(C(c2ccccc2)c2ccc(N(C)C)cc2)cc1 [leuco malachite green]	–	–	difficult to dissolve into water in the neutral pH-range	–
CN(C)c1ccc(C(c2ccc(N(C)C)cc2)c2ccc(N(C)C)cc2)cc1 [leucocrystal violet]	–	–	difficult to dissolve into water in the neutral pH-range	–

— patent EP0174371B1, “TRIPHENYLMETHANE DERIVATIVES AND METHOD FOR DETERMINING OXIDATIVE SUBSTANCES USING THEM AS COLOR-FORMING COMPONENT” (WAKO PURE CHEMICAL INDUSTRIES, LTD., priority 1984, dated 1985)
